{"source": "patent US20240059677A1", "about": "“SUBSTITUTED PYRIMIDINE DERIVATIVES AS NICOTINIC ACETYLCHOLINESTERASE RECEPTOR ALPHA 6 MODULATOR” (priority 2020, published 2024)", "target": "T1, human nAChRα6-α3 chimera, in addition to β2 and β3^V273S subunits (Homo sapiens, UniProt P32297+Q15825)", "T1 construct": "expressed in transfected cells", "T1 sequence (Q05901 25-458 V273S)": "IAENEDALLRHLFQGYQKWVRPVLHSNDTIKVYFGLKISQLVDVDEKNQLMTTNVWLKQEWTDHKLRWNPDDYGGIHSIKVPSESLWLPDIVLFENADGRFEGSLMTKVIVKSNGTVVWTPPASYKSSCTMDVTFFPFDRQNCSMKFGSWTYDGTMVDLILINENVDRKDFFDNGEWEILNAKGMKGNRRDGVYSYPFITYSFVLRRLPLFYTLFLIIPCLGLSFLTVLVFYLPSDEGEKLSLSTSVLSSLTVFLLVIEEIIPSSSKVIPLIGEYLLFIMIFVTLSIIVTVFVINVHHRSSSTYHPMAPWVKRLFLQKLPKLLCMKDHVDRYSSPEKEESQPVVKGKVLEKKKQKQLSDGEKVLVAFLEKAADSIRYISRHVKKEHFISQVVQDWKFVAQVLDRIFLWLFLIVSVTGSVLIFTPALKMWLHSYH", "T1 sequence (P17787 26-502, stated change not applied, further chain)": "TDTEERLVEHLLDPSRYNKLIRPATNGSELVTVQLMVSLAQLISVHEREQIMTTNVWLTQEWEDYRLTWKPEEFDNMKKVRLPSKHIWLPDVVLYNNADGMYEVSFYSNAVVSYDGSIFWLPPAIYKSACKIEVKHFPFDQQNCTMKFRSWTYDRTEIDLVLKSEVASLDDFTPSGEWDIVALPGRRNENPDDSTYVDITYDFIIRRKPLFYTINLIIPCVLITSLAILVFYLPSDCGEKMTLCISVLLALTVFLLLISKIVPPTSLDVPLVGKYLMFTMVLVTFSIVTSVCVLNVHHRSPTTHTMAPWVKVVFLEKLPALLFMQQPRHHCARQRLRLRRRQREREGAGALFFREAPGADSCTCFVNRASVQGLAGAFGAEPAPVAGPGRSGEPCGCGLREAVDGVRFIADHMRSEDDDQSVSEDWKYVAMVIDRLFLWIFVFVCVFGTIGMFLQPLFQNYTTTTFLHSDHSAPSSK", "T1 sequence (Q15825+P32297 fused with the stated changes)": "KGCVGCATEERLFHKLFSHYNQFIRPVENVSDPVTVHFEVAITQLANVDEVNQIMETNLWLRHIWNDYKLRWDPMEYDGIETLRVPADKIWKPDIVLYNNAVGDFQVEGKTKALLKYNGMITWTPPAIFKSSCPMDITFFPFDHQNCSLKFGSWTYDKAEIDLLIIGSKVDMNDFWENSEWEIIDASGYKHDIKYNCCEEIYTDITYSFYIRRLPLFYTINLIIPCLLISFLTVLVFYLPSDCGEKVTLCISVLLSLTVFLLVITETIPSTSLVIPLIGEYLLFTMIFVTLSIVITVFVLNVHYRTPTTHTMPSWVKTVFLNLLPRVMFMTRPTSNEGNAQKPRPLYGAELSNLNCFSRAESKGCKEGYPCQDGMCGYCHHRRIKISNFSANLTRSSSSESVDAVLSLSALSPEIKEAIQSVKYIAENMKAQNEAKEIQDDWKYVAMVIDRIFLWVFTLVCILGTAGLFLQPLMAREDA", "experiment": "fluorescence-based calcium assay: inhibition of nicotine stimulated nAChRα6 activity (FLIPR)", "conditions": "HEK cell line stably expressing the receptor, 10 min pre-incubation, nicotine EC80, 10-point curve, duplicate wells", "method": "The ability of the test compounds to inhibit nicotine stimulated nAChRα6 activity was determined in a fluorescence-based calcium assay. Compound activity was determined using a HEK cell line stably expressing a human nAChRα6-α3 chimera, in addition to β2 and β3^V273S subunits (as in Capelli et al, Br J Pharmacol 163(2): 313-29 2011). In this cell line, nicotine stimulated an increase in intracellular calcium concentration, measured as an increase in fluorescence when cells were incubated with a calcium sensitive dye. Test compounds were pre-incubated with cells prior to nicotine stimulation to detect any reduction in the magnitude of the nicotine response.\nThe day prior to the assay, compounds were serially diluted in DMSO (200× final assay concentration (FAC)), in 384-well plates which were then stored in the dark at room temperature (RT) until use. Cells were seeded at 20 k/well in black, poly-D-lysine coated, clear bottom 384-well plates and incubated for 4 hours at 37° C., followed by overnight incubation at 30° C. The following day, the DMSO compound plate was diluted 1:20 (10×FAC) in assay buffer (HEPES buffered saline solution with 10 mM HEPES, 0.1% bovine serum albumin, 1 mM probenecid). A nicotine solution was prepared in assay buffer (7×FAC) and dispensed into a 384-well plate. The growth media was removed from the cell plate, replaced with 53 μl calcium dye/well (Calcium 5; Molecular Devices) and the plate incubated at 30° C. for 45 minutes. Test compounds were then added to the cells (7 μl of 10×FAC) and incubated for 10 minutes, after which nicotine EC80 (10 μl of 7×FAC) was added and changes in fluorescence measured using a FLIPR plate reader (Molecular Devices).\nCompound activity was examined using a 10-point, half-log concentration-response range and each concentration was tested in duplicate wells.", "note": "Where two headings read alike, the source gives them in different places.", "data": [{"smiles": "CCN1CCC[C@H]1CNc1ncc(-c2ccc(C(F)(F)F)cc2F)c(C)n1", "note": "[Example 105, (S)—N-((1-ethylpyrrolidin-2-yl)methyl)-5-(2-fluoro-4-(trifluoromethyl)phenyl)-4-methyl-pyrimidin-2-amine]", "values": [{"measurement": "IC50", "setting": "read-out: IC50", "value": 0.05, "unit": "µM"}]}, {"smiles": "Cc1nc(NC(C)[C@@H]2CCCN2)ncc1-c1ccc(C(F)(F)F)cc1F", "note": "(single isomer, unassigned) [Example 130a, 5-(2-fluoro-4-(trifluoromethyl)phenyl)-4-methyl-N-((1*R)-1-((2S)-pyrrolidin-2-yl)ethyl)pyrimidin-2-amine]", "values": [{"measurement": "IC50", "setting": "read-out: IC50", "value": 0.118, "unit": "µM"}]}, {"smiles": "COc1ccc(-c2nnc(NCC3CCCN3C)nc2C)c(F)c1", "note": "(single isomer, unassigned) [Example 54b, 6-(2-fluoro-4-methoxyphenyl)-5-methyl-N-((1-methylpyrrolidin-2-yl)methyl)-1,2,4-triazin-3-amine]", "values": [{"measurement": "IC50", "setting": "read-out: IC50", "value": 0.442, "unit": "µM"}]}, {"smiles": "Cc1nc(NCC2N(C)CCC2(F)F)ncc1-c1ccc(F)cc1F", "note": "(single isomer, unassigned) [Example 84a, N-((3,3-difluoro-1-methylpyrrolidin-2-yl)methyl)-5-(2,4-difluorophenyl)-4-methyl-pyrimidin-2-amine]", "values": [{"measurement": "IC50", "setting": "read-out: IC50", "value": 1.53, "unit": "µM"}]}, {"smiles": "Cc1nc(NC2CCCN(C(C)C)C2)ncc1-c1ccc(F)cc1", "note": "(centres unmarked) [Example 9, 5-(4-fluorophenyl)-N-(1-isopropylpiperidin-3-yl)-4-methyl-pyrimidin-2-amine]", "values": [{"measurement": "IC50", "setting": "read-out: IC50", "value": 0.264, "unit": "µM"}]}, {"smiles": "Cc1nc(N[C@@H]2CCCNC2)ncc1-c1ccc(C(F)(F)F)cc1F", "note": "[Example 128, (R)-5-(2-fluoro-4-(trifluoromethyl)phenyl)-4-methyl-N-(piperidin-3-yl) pyrimidin-2-amine]", "values": [{"measurement": "IC50", "setting": "IC50 (μM)", "value": 0.18, "unit": "µM"}]}, {"smiles": "CN1CCCC1CCNc1ncc(-c2ccc(F)cc2)cn1", "note": "(centres unmarked) [Example 3, 5-(4-fluorophenyl)-N-(2-(1-methylpyrrolidin-2-yl)ethyl)pyrimidin-2-amine]", "values": [{"measurement": "IC50", "setting": "read-out: IC50", "value": 0.331, "unit": "µM"}]}, {"smiles": "Cc1nc(NCC2CCN(C)CC2)ncc1-c1ccc(C(F)(F)F)cc1F", "note": "[Example 101, 5-(2-fluoro-4-(trifluoromethyl)phenyl)-4-methyl-N-((1-methyl-4-piperidinyl)methyl)pyrimidin-2-amine]", "values": [{"measurement": "IC50", "setting": "read-out: IC50", "value": 0.109, "unit": "µM"}]}, {"smiles": "COc1ccc(-c2c(C)nc(NCC3CCCN3C)nc2C)c(F)c1", "note": "(centres unmarked) [Example 70, 5-(2-fluoro-4-methoxyphenyl)-4,6-dimethyl-N-((1-methylpyrrolidin-2-yl)methyl)pyrimidin-2-amine]", "values": [{"measurement": "IC50", "setting": "read-out: IC50", "value": 0.072, "unit": "µM"}]}, {"smiles": "COc1ccc(-c2cnc(NC3CCC(N(C)C)C3)nc2C#N)c(F)c1", "note": "(single isomer, unassigned) [Example 38a, 2-((3-(dimethylamino)cyclopentyl)amino)-5-(2-fluoro-4-methoxyphenyl) pyrimidine-4-carbonitrile]", "values": [{"measurement": "IC50", "setting": "read-out: IC50", "value": 0.059, "unit": "µM"}]}, {"smiles": "COc1ccc(-c2cnc(NCC3CCCO3)nc2C)c(Cl)c1", "note": "(centres unmarked) [Example 47, 5-(2-chloro-4-methoxyphenyl)-4-methyl-N-((tetrahydrofuran-2-yl)methyl) pyrimidin-2-amine]", "values": [{"measurement": "IC50", "setting": "read-out: IC50", "value": 1.25, "unit": "µM"}]}, {"smiles": "Cc1nc(N[C@H]2C[C@H]3CC[C@@H](C2)N3)ncc1-c1ccc(C(F)(F)F)cc1F", "note": "[Example 121, (1R,3s,5S)—N-(5-(2-fluoro-4-(trifluoromethyl)phenyl)-4-methyl-pyrimidin-2-yl)-8-azabicyclo[3.2.1]octan-3-amine]", "values": [{"measurement": "IC50", "setting": "read-out: IC50", "value": 0.191, "unit": "µM"}]}, {"smiles": "Cc1nc(NCC2CCN(C)C2)ncc1-c1ccc(F)cc1F", "note": "(centres unmarked) [Example 13, 5-(2,4-difluorophenyl)-4-methyl-N-((1-methylpyrrolidin-3-yl)methyl) pyrimidin-2-amine]", "values": [{"measurement": "IC50", "setting": "read-out: IC50", "value": 0.05, "unit": "µM"}]}, {"smiles": "Cc1nc(NC2CC23CCNCC3)ncc1-c1ccc(C(F)(F)F)cc1F", "note": "(centres unmarked) [Example 123, N-(5-(2-fluoro-4-(trifluoromethyl)phenyl)-4-methyl-pyrimidin-2-yl)-6-azaspiro[2.5]octan-1-amine]", "values": [{"measurement": "IC50", "setting": "read-out: IC50", "value": 0.15, "unit": "µM"}]}, {"smiles": "COc1ccc(-c2cnc(NC3CCC(N(C)C)C3)nc2C(F)(F)F)c(F)c1", "note": "(centres unmarked) [Example 43, N^1-(5-(2-fluoro-4-methoxyphenyl)-4-(trifluoromethyl)pyrimidin-2-yl)-N^3,N^3-dimethylcyclopentane-1,3-diamine]", "values": [{"measurement": "IC50", "setting": "read-out: IC50", "value": 0.178, "unit": "µM"}]}, {"smiles": "CN(C)C1CCC(Nc2ncc(-c3ccc(F)cc3F)c(C#N)n2)C1", "note": "(single isomer, unassigned) [Example 58b, 5-(2,4-difluorophenyl)-2-((3-(dimethylamino)cyclopentyl)amino) pyrimidine-4-carbonitrile]", "values": [{"measurement": "IC50", "setting": "read-out: IC50", "value": 0.056, "unit": "µM"}]}, {"smiles": "COc1ccc(-c2cnc(NCC3CCCN3C)nc2C)c(F)c1", "note": "(single isomer, unassigned) [Example 28a, 5-(2-fluoro-4-methoxyphenyl)-4-methyl-N-((1-methylpyrrolidin-2-yl)methyl)pyrimidin-2-amine]", "values": [{"measurement": "IC50", "setting": "read-out: IC50", "value": 0.054, "unit": "µM"}]}, {"smiles": "COc1ccc(-c2nnc(NCC3CCCN3C)nc2C)c(F)c1", "note": "(single isomer, unassigned) [Example 18b, 6-(2-fluoro-4-methoxyphenyl)-5-methyl-N-((1-methylpyrrolidin-2-yl)methyl)-1,2,4-triazin-3-amine]", "values": [{"measurement": "IC50", "setting": "read-out: IC50", "value": 0.442, "unit": "µM"}]}, {"smiles": "CCN1CCC[C@@H](Nc2ncc(-c3ccc(F)cc3F)c(C)n2)C1", "note": "(single isomer, unassigned) [Example 78a]", "values": [{"measurement": "IC50", "setting": "read-out: IC50", "value": 0.061, "unit": "µM"}]}, {"smiles": "Cc1nc(NC(C)[C@H]2CCCN2)ncc1-c1ccc(C(F)(F)F)cc1F", "note": "(single isomer, unassigned) [Example 129a, 5-(2-fluoro-4-(trifluoromethyl)phenyl)-4-methyl-N-((1*R)-1-((2R)-pyrrolidin-2-yl)ethyl)pyrimidin-2-amine]", "values": [{"measurement": "IC50", "setting": "read-out: IC50", "value": 0.065, "unit": "µM"}]}, {"smiles": "Cc1nc(NC[C@H]2NCC[C@@H]2F)ncc1-c1ccc(C(F)(F)F)cc1F", "note": "(single isomer, unassigned) [Example 133b, 5-(2-fluoro-4-(trifluoromethyl)phenyl)-N-(((2*R,3*S)-3-fluoropyrrolidin-2-yl)methyl)-4-methyl-pyrimidin-2-amine]", "values": [{"measurement": "IC50", "setting": "read-out: IC50", "value": 0.3, "unit": "µM"}]}, {"smiles": "Cc1nc(NC2CCN3CCCC23)ncc1-c1ccc(OC(F)(F)F)cc1F", "note": "(single isomer, unassigned) [Example 97d, N-(5-(2-fluoro-4-(trifluoromethoxy)phenyl)-4-methyl-pyrimidin-2-yl)hexahydro-1H-pyrrolizin-1-amine]", "values": [{"measurement": "IC50", "setting": "read-out: IC50", "value": 0.299, "unit": "µM"}]}, {"smiles": "Cc1nc(NCC2CCC(C)N2C)ncc1-c1ccc(C(F)(F)F)cc1F", "note": "(single isomer, unassigned) [Example 138a, N-(((2*R,5*R)-1,5-dimethylpyrrolidin-2-yl)methyl)-5-(2-fluoro-4-(trifluoromethyl)phenyl)-4-methyl-pyrimidin-2-amine]", "values": [{"measurement": "IC50", "setting": "read-out: IC50", "value": 0.207, "unit": "µM"}]}, {"smiles": "COc1ccc(F)c(-c2cnc(NCC3CCCN(C)C3)nc2C)c1", "note": "(centres unmarked) [Example 34, 5-(2-fluoro-5-methoxyphenyl)-4-methyl-N-((1-methylpiperidin-3-yl)methyl) pyrimidin-2-amine]", "values": [{"measurement": "IC50", "setting": "read-out: IC50", "value": 0.13, "unit": "µM"}]}, {"smiles": "Cc1nc(NC[C@]2(C)CCCN2)ncc1-c1ccc(C(F)(F)F)cc1F", "note": "[Example 134, (S)-5-(2-fluoro-4-(trifluoromethyl)phenyl)-4-methyl-N-((2-methyl-pyrrolidin-2-yl)methyl)pyrimidin-2-amine]", "values": [{"measurement": "IC50", "setting": "read-out: IC50", "value": 0.101, "unit": "µM"}]}, {"smiles": "Cc1nc(NC[C@]2(C)CCCN2C)ncc1-c1ccc(C(F)(F)F)cc1F", "note": "[Example 136, (S)—N-((1,2-dimethylpyrrolidin-2-yl)methyl)-5-(2-fluoro-4-(trifluoromethyl)phenyl)-4-methyl-pyrimidin-2-amine]", "values": [{"measurement": "IC50", "setting": "IC50 (μM)", "value": 0.096, "unit": "µM"}]}, {"smiles": "CN1CCCC(Nc2ncc(-c3ccc(F)cc3)cn2)C1", "note": "(centres unmarked) [Example 5, 5-(4-fluorophenyl)-N-(1-methylpiperidin-3-yl)pyrimidin-2-amine]", "values": [{"measurement": "IC50", "setting": "read-out: IC50", "value": 0.635, "unit": "µM"}]}, {"smiles": "COc1ccc(-c2cnc(NC3CCC(N(C)C)C3)nc2C)c(F)c1", "note": "(single isomer, unassigned) [Example 44a, N^1-(5-(2-fluoro-4-methoxyphenyl)-4-methyl-pyrimidin-2-yl)-N^3,N^3-dimethylcyclopentane-1,3-diamine]", "values": [{"measurement": "IC50", "setting": "read-out: IC50", "value": 0.076, "unit": "µM"}]}, {"smiles": "COc1ccc(-c2cnc(NCC3CCCN3C)nc2C)c(F)c1", "note": "(single isomer, unassigned) [Example 28b, 5-(2-fluoro-4-methoxyphenyl)-4-methyl-N-((1-methylpyrrolidin-2-yl)methyl)pyrimidin-2-amine]", "values": [{"measurement": "IC50", "setting": "read-out: IC50", "value": 0.01, "unit": "µM"}]}, {"smiles": "Cc1nc(NCC2CN(C)CCO2)ncc1-c1ccc(C(F)(F)F)cc1F", "note": "(centres unmarked) [Example 108, 5-(2-fluoro-4-(trifluoromethyl)phenyl)-4-methyl-N-((4-methylmorpholin-2-yl)methyl)pyrimidin-2-amine]", "values": [{"measurement": "IC50", "setting": "read-out: IC50", "value": 0.043, "unit": "µM"}]}, {"smiles": "Cc1nc(NC2CCN3CCCC23)ncc1-c1ccc(F)cc1F", "note": "(single isomer, unassigned) [Example 86b, N-(5-(2,4-difluorophenyl)-4-methyl-pyrimidin-2-yl)hexahydro-1H-pyrrolizin-1-amine]", "values": [{"measurement": "IC50", "setting": "read-out: IC50", "value": 0.126, "unit": "µM"}]}, {"smiles": "Cc1nc(NC[C@@H]2CCCN2C)ncc1-c1ccc(OC(F)(F)F)cc1F", "note": "[Example 93b, (S)-5-(2-fluoro-4-(trifluoromethoxy)phenyl)-4-methyl-N-((1-methylpyrrolidin-2-yl)methyl)pyrimidin-2-amine]", "values": [{"measurement": "IC50", "setting": "read-out: IC50", "value": 0.011, "unit": "µM"}]}]}
